Measurements reported in ChEMBL document CHEMBL1121659 (J Med Chem, 1981).
Active and inactive are the calls of the source. No cut-off for these calls is given here.

What was measured:
[1] = system: Mus musculus; experiment: Compound was evaluated for the neuro toxicity up to 4 hours after doses of <=300 mg/kg administered intraperitoneally; No toxicity; assay type: organism-based; conditions: in vivo, ip
[2] = system: Mus musculus; experiment: Compound was evaluated for the dose required for protection against scMET-induced seizures after 4 hours of intraperitoneal administration; Inactive; assay type: functional, organism-based
[3] = system: Mus musculus; experiment: Compound was evaluated for the dose required for protection against MES-induced seizures after 4 hours of intraperitoneal administration; Inactive; assay type: functional, organism-based
[4] = system: Mus musculus; experiment: Compound was evaluated for the dose required for protection against scMET-induced seizures after 4 hours of intraperitoneal administration at the doses< = 0.77-0.90 mM/kg; Inactive; assay type: functional, organism-based
[5] = system: Mus musculus; experiment: Compound was evaluated for the dose required for protection against MES-induced seizures after 4 hours of intraperitoneal administration; assay type: functional
[6] = Compound was evaluated for the biliary excretion in the anesthetized rats in 6 hours after intravenous doses 10 mg/kg; assay type: ADME, organism-based; parameters: dose 10 mg/kg, route intravenous; conditions: rat, bile, read-out: Excretion
[7] = system: Mus musculus; experiment: Compound was evaluated for the dose required for protection against scMET-induced seizures after 4 hours of intraperitoneal administration; assay type: functional
[8] = Compound was evaluated for the biological half-life in rat after a dose of 10 mg/kg given intravenously; assay type: ADME, organism-based; parameters: dose 10 mg/kg, route intravenous; conditions: in vivo, iv
[9] = system: Mus musculus; experiment: Compound was evaluated for the biological half-life in mouse after a dose of 40 mg/kg given intraperitoneally; conditions: in vivo, ip
[10] = Compound was evaluated for the biliary excretion in the anesthetized rats in 6 hours after intravenous doses 1 mg/kg; assay type: ADME, organism-based; parameters: dose 1 mg/kg, route intravenous; conditions: rat, bile, read-out: Excretion

With Cc1ccc(C2(c3ccc(C(F)(F)F)cc3)NC(=O)NC2=O)cc1 (stereo not drawn) the Neurotoxicity [1] was “No toxicity”, the Activity [2] was “inactive” and the Activity [3] was “inactive”.
For Cc1ccc(C2(c3cccc(C(F)(F)F)c3)NC(=O)NC2=O)cc1 (stereo in doubt; 7), the Neurotoxicity [1] was “No toxicity”, the Activity [2] was “inactive” and the Activity [3] was “inactive”.
In the case of O=C1NC(=O)C(c2ccc(C(F)(F)F)cc2)(c2cccc(C(F)(F)F)c2)N1 (stereo not drawn), the Neurotoxicity [1] is reported as “No toxicity”, the Activity [2] is reported as “inactive” and the Activity [3] is reported as “inactive”.
For O=C1NC(=O)C(c2ccccc2)(c2ccc(C(F)(F)F)cc2)N1 (stereo not drawn), the Activity [4] was “inactive”, the Neurotoxicity [1] was “No toxicity” and the Activity [5] was 0.94 mmol/kg.
For O=C1NC(=O)C(c2ccccc2)(c2ccccc2)N1 [PHENYTOIN], the dose excreted at 6 h [6] was 28%, the Activity [7] was “inactive” and the half-life [8] was 30 min. The T1/2 [9] was 990 min, the dose excreted at 6 h [10] was 54% and the Activity [5] was 0.038 mmol/kg.
